This passage reports IC50 and inhibition results from US12398111B2, “Triazine compounds and pharmaceutical use thereof” (Japan Tobacco Inc., priority 2014, dated 2025).

As usually defined, the IC50 is the concentration needed to halve the response being measured. Lower therefore signals higher potency. As usually defined, the inhibition is the share of the control response that was lost under treatment.

The first experiment has as its target T1, human mPGES-1 (Homo sapiens, UniProt O14684).
T1 construct: made in house; host or cells: FreeStyle CHO-S cells (Chinese hamster ovary), transient transfection with pcDNA3.1(+)/human mPGES-1; microsome fraction used
T1 sequence (O14684 1-152): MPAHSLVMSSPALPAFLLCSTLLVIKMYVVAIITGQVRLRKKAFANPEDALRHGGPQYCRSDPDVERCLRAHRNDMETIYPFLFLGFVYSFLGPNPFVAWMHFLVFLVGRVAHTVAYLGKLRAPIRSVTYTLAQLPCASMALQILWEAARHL
The experiment is described as follows: Evaluation of human mPGES-1 enzyme inhibitory activity (PGE2 measured by HTRF, microsome fraction of CHO-S cells expressing human mPGES-1). The conditions noted are these: IC50 value; microsome fraction of CHO-S cells expressing human mPGES-1, PGE2 by HTRF. Type of experiment: biochemical. The procedure:
That is, the amount of PGE2 produced by human mPGES-1 in the presence of a test article was measured by the HTRF (homogeneous time resolved fluorescence) method, based on which the human mPGES-1 enzyme inhibitory activity of the test article was determined.
1) Preparation of Human mPGES-1 Expressing Cell Microsome Fraction
A DNA fragment containing human mPGES-1, which is added with a BamHI recognition cleavage sequence immediately before the translation initiation codon and an EcoRI recognition cleavage sequence immediately after the translation termination codon was amplified by the PCR (Polymerase Chain Reaction) method using a human mPGES-1 expression plasmid DNA (pME-18S/iPGES-1) prepared in-house as a template. The purified DNA fragment was digested with BamHI and EcoRI, and ligated to pcDNA3.1(+) (Invitrogen, model number V790-20), similarly digested with BamHI and EcoRI, by using a DNA Ligation kit ver.2.1 (Takara Bio, model number 6022). The human mPGES-1 expression plasmid DNA was isolated from Escherichia coli DH5a (TOYOBO, model number DNA-903) transformed with the obtained ligation product. The base sequence of human mPGES-1 cloned to a vector was determined by the Dye Terminator method by using BigDye Terminator v3.1 Cycle Sequencing Kit (Applied Biosystems, #4337455).
Human mPGES-1 expression plasmid DNA was transfected into Chinese hamster ovary-derived cells (FreeStyle CHO-S Cell, Invitrogen, #R800-07) by using a transgene reagent (FreeStyle MAX Reagent (Invitrogen, #16447-100)), and cultured with shaking (8% CO2, 37° C.) in a medium containing 8 mmol/L L-glutamine (GIBCO FreeStyle CHO Expression Medium, Invitrogen, #12651-022) for 48 hr.
The CHO-S cells were suspended in Homogenate Buffer (100 mmol/L potassium phosphate (pH 7.4), 250 mmol/L Sucrose, 100 mmol/L EDTA, complete EDTA free (Roche, #1873580)). Using an ultrasonic disruptor UD-201 (Tomy Seiko), the suspended cells were disrupted at output:3, duty cycle:50 for 30 seconds. The precipitate was removed by centrifugation (1,000×g, 5 min, 4° C.), is and the supernatant was centrifuged (5,000×g, 10 min, 4° C.). The supernatant was further centrifuged (105,000×g, 60 min, 4° C.). The obtained precipitate was suspended in Resuspension Buffer (100 mmol/L potassium phosphate (pH 7.4), 250 mmol/L sucrose, 100 mmol/L EDTA, 10% glycerol) to give a microsome fraction.
The protein concentration of the microsome fraction was measured by the Bradford method (Protein Assay Kit, Bio-Rad). The microsome fraction was rapidly frozen in liquid nitrogen and preserved at −80° C. Human mPGES-1 in the microsome fraction was detected by Western Blot using rabbit anti-mPGES-1 polyclonal antibody (ThermoFisher Scientific, #PA1-10264).
2) Evaluation of Human mPGES-1 Enzyme Inhibitory Activity
A test article solution diluted with 0.1 mol/L potassium phosphate, pH 7.4 (hereinafter to be referred to as KPB) or DMSO (Nacalai Tesque, #13407-45) was added at 5 μL/well to 96 well V-bottom plate (Corning, #3363). The final DMSO concentration during the reaction was set to 2% (v/v). Furthermore, a microsome fraction of CHO-S cells expressing human mPGES-1, which was diluted with reduced GSH (12.5 mmol/L KPB solution, SIGMA, #G6529-25G) such that the protein concentration was 5 μg/mL, was added at 20 μL/well. The amount of the microsome fraction used is the amount of microsome fraction within a range where the amount of PGE2 produced under the reaction conditions shown below and the amount of microsome fraction used show linearity. To the blank was added reduced GSH (12.5 mmol/L KPB solution) at 20 μL/well.
On the technique in general: In TR-FRET formats the signal depends on donor and acceptor labels being close together.
In turn, `CO[C@](C)(C(=O)NC(C)c1ccc(Cl)c(-c2nc(O)nc(-c3ccc(F)c(C)c3)n2)c1)C(F)(F)F` (single isomer, unassigned) [Example 1-188] showed an IC50 of 1.6 nM. On the same count and under the same terms, the figure for `CO[C@](C)(C(=O)NC(C)c1ccc(Cl)c(-c2nc(O)nc(-c3ccc(F)c(C)c3)n2)c1)C(F)(F)F` (single isomer, unassigned) [Example 1-189] is 1100 nM; for `CO[C@](C)(C(=O)NC(C)c1ccc(Cl)c(-c2nc(O)nc(-c3ccc(OCC(C)(C)C)cc3)n2)c1)C(F)(F)F` (single isomer, unassigned) [Example 1-200] it is 10 nM.

Molecule `CO[C@](C)(C(=O)NC(C)c1ccc(Cl)c(-c2nc(O)nc(-c3ccc(OCC(C)(C)C)cc3)n2)c1)C(F)(F)F` (single isomer, unassigned) [Example 1-201] had an IC50 of 306 nM. Molecule `CC1CCC(CO)(C(=O)NCc2ccc(Cl)c(-c3nc(O)nc(-c4ccccc4)n3)c2)CC1` (single isomer, unassigned) [Example 1-256] returned an IC50 of 98 nM. In the case of `CC1CCC2(CC1)CN(Cc1ccc(Cl)c(-c3nc(O)nc(-c4ccccc4)n3)c1)C2=O` (single isomer, unassigned) [Example 1-257], it took 17 nM to reach half-maximal inhibition (IC50). Regarding `CC(C)(C)C1CCC2(CC1)CN(Cc1ccc(Cl)c(-c3nc(O)nc(-c4ccccc4)n3)c1)C2=O` (single isomer, unassigned) [Example 1-266, 7-tert-butyl-2-[4-chloro-3-(4-hydroxy-6-phenyl-1,3,5-triazin-2-yl)benzyl]-2-azaspiro[3.5]nonan-1-one], it took 11 nM to reach half-maximal inhibition (IC50). For the molecule `COC1CCC2(CC1)CN(Cc1ccc(Cl)c(-c3nc(O)nc(-c4ccccc4)n3)c1)C2=O` (single isomer, unassigned) [Example 1-267], half-maximal inhibition (IC50) was put at 150 nM. Still for that read-out and setting: to `Cc1ccc(F)cc1-c1nc(O)nc(-c2ccc(C(F)(F)F)cc2)n1` [Example 1-1] belongs 813 nM; to `Cc1ccc(C)c(-c2nc(O)nc(-c3ccc(C(F)(F)F)cc3)n2)c1` [Example 1-2], 138 nM; to `Cc1ccc(Cl)cc1-c1nc(O)nc(-c2ccc(C(F)(F)F)cc2)n1` [Example 1-3], 164 nM. Still for that read-out and setting: the figure for `Cc1ccc(Cl)c(-c2nc(O)nc(-c3ccc(C(F)(F)F)cc3)n2)c1` [Example 1-4] is 25 nM.

`Oc1nc(-c2ccc(C(F)(F)F)cc2)nc(-c2cc(OC(F)(F)F)ccc2Cl)n1` [Example 1-5]: inhibition was half-maximal at 672 nM (IC50). This IC50 is about 27-fold higher than that of the molecule before. Still for that read-out and setting: to `COc1ccc(Cl)c(-c2nc(O)nc(-c3ccc(C(F)(F)F)cc3)n2)c1` [Example 1-6] belongs 163 nM; to `Oc1ccc(Cl)c(-c2nc(O)nc(-c3ccc(C(F)(F)F)cc3)n2)c1` [Example 1-7], 652 nM; to `O=C(O)c1ccc(Cl)c(-c2nc(O)nc(-c3ccc(C(F)(F)F)cc3)n2)c1` [Example 1-8], 27000 nM.

In turn, `Cc1ccc(C(F)(F)F)cc1-c1nc(O)nc(-c2ccc(C(F)(F)F)cc2)n1` [Example 1-9] returned an IC50 of 601 nM. The same measure, in the same setting: to `OCc1ccc(Cl)c(-c2nc(O)nc(-c3ccc(C(F)(F)F)cc3)n2)c1` [Example 1-12] belongs 15 nM. In the case of `CC(=O)c1ccc(Cl)c(-c2nc(O)nc(-c3ccc(C(F)(F)F)cc3)n2)c1` [Example 1-13], the IC50 came out at 397 nM.

As to `CCc1ccc(C)c(-c2nc(O)nc(-c3ccc(C(F)(F)F)cc3)n2)c1` [Example 1-14], the IC50 stood at 1410 nM. `CC(C)(C)OC(=O)NCc1ccc(Cl)c(-c2nc(O)nc(-c3ccc(C(F)(F)F)cc3)n2)c1` [Example 1-15] registered a concentration for half-maximal inhibition (IC50) of 7.4 nM. Turning to `CC(=O)NCc1ccc(Cl)c(-c2nc(O)nc(-c3ccc(C(F)(F)F)cc3)n2)c1` [Example 1-16], half-maximal inhibition (IC50) was put at 10 nM. On the same count and under the same terms, to `NCc1ccc(Cl)c(-c2nc(O)nc(-c3ccc(C(F)(F)F)cc3)n2)c1` [Example 1-17] belongs 735 nM; to `CC(O)c1ccc(Cl)c(-c2nc(O)nc(-c3ccc(C(F)(F)F)cc3)n2)c1` (stereo not shown) [Example 1-18], 114 nM; to `COCc1ccc(Cl)c(-c2nc(O)nc(-c3ccc(C(F)(F)F)cc3)n2)c1` [Example 1-19], 411 nM. On the same count and under the same terms, the figure for `CS(=O)(=O)NCc1ccc(Cl)c(-c2nc(O)nc(-c3ccc(C(F)(F)F)cc3)n2)c1` [Example 1-20] is 1.6 nM; for `CC(=O)N(C)Cc1ccc(Cl)c(-c2nc(O)nc(-c3ccc(C(F)(F)F)cc3)n2)c1` [Example 1-21] it is 988 nM. The same measure, in the same setting: to `COC(=O)NCc1ccc(Cl)c(-c2nc(O)nc(-c3ccc(C(F)(F)F)cc3)n2)c1` [Example 1-22] belongs 2.7 nM; to `O=C(O)Cc1ccc(Cl)c(-c2nc(O)nc(-c3ccc(C(F)(F)F)cc3)n2)c1` [Example 1-23], 134 nM; to `CC(C)(C)C(=O)NCc1ccc(Cl)c(-c2nc(O)nc(-c3ccc(C(F)(F)F)cc3)n2)c1` [Example 1-24], 0.6 nM. With `CC(=O)OCc1ccc(Cl)c(-c2nc(O)nc(-c3ccc(C(F)(F)F)cc3)n2)c1` [Example 1-25], the IC50 was 108 nM. Same read-out and setting: to `CNC(=O)Cc1ccc(Cl)c(-c2nc(O)nc(-c3ccc(C(F)(F)F)cc3)n2)c1` [Example 1-26] belongs 18 nM; to `CCC(=O)NCc1ccc(Cl)c(-c2nc(O)nc(-c3ccc(C(F)(F)F)cc3)n2)c1` [Example 1-27], 1 nM. Regarding `CC(C)C(=O)NCc1ccc(Cl)c(-c2nc(O)nc(-c3ccc(C(F)(F)F)cc3)n2)c1` [Example 1-28], the IC50 amounted to 0.6 nM. Consider `O=C(NCc1ccc(Cl)c(-c2nc(O)nc(-c3ccc(C(F)(F)F)cc3)n2)c1)C1CCCCC1` [Example 1-29], for which the IC50 is 1.1 nM. `O=C(NCc1ccc(Cl)c(-c2nc(O)nc(-c3ccc(C(F)(F)F)cc3)n2)c1)C1CCCC1` [Example 1-30]: the IC50 was determined as 0.6 nM.

Consider `CCS(=O)(=O)NCc1ccc(Cl)c(-c2nc(O)nc(-c3ccc(C(F)(F)F)cc3)n2)c1` [Example 1-31], for which the IC50 was 1 nM. Compared with the last molecule, the IC50 is about 1.7-fold higher.

`CC(C)(C)S(=O)(=O)NCc1ccc(Cl)c(-c2nc(O)nc(-c3ccc(C(F)(F)F)cc3)n2)c1` [Example 1-32] displayed an IC50 of 0.7 nM. On the same count and under the same terms, the figure for `CC(C)S(=O)(=O)NCc1ccc(Cl)c(-c2nc(O)nc(-c3ccc(C(F)(F)F)cc3)n2)c1` [Example 1-33] is 0.8 nM. `CN(C)C(=O)NCc1ccc(Cl)c(-c2nc(O)nc(-c3ccc(C(F)(F)F)cc3)n2)c1` [Example 1-34] gave a 50% inhibitory concentration (IC50) of 5.9 nM. This IC50 lies about 7.4-fold higher than the previous one.

`CNC(=O)NCc1ccc(Cl)c(-c2nc(O)nc(-c3ccc(C(F)(F)F)cc3)n2)c1` [Example 1-35] returned an IC50 of 22 nM. Consider `CCCC(=O)NCc1ccc(Cl)c(-c2nc(O)nc(-c3ccc(C(F)(F)F)cc3)n2)c1` [Example 1-36], for which half-maximal inhibition (IC50) required 0.7 nM. Regarding `CC(C)CC(=O)NCc1ccc(Cl)c(-c2nc(O)nc(-c3ccc(C(F)(F)F)cc3)n2)c1` [Example 1-37], the IC50 was found to be 0.8 nM. The IC50 values of the last two molecules are within 1.5-fold of each other. For `CCOC(=O)NCc1ccc(Cl)c(-c2nc(O)nc(-c3ccc(C(F)(F)F)cc3)n2)c1` [Example 1-38], it took 1.5 nM to reach half-maximal inhibition (IC50). Against the preceding molecule, the IC50 is about 1.9-fold higher.

Staying with this experiment, now noted: at 30 μM test article.
Consider `Cc1ccc(C(=O)O)cc1-c1nc(O)nc(-c2ccc(C(F)(F)F)cc2)n1` [Example 1-10], for which at 30 µM the inhibition was 5%. Still for that read-out and setting: to `Cc1ccc(C(N)=O)cc1-c1nc(O)nc(-c2ccc(C(F)(F)F)cc2)n1` [Example 1-11] belongs 42%.
